The values below come from patent US7829524B2, “Antimicrobial peptides” (Novozymes Adenium Biotech A/S, priority 2003, dated 2010).

For orientation: MIC means the lowest concentration found to suppress growth. A higher MIC goes with weaker potency.

The test system of assay [1] is Clostridium difficile ATCC 43594. Nature of the assay: NCCLS microdilution broth assay (MIC), wound infection strains. The format is cell-based. As to conditions: Table 1; cationic adjusted Muller-Hinton Broth; highest concentration tested 32 μg/ml. As to the method: (§1) According to the NCCLS guidelines for susceptibility test of novel antimicrobial compounds, we found a broad spectrum of activity of Cat1 (Methods for Dilution Antimicrobial Susceptibility Tests for Bacteria That Grow Aerobically; Approved Standard-Fifth Edition. NCCLS document M7-A5 (ISBN1-56238-394-9)).
(§2) In another campaign, the specific MICs of Cat1 were determined against a variety of microbial strains relevant for wound infections. As recommended in the above-mentioned NCCLS protocol, the strains were grown in cationic adjusted Muller-Hinton Broth. The highest concentration tested was 32 μg/ml.

Assay [2] concerns Citrobacter freundii ATCC 11811. The format is cell-based. The procedure:
as §1, §2

For assay [3], the system named is Escherichia coli ATCC 25922. The format is cell-based. As to the method:
as §1, §2

The subject of assay [4] is Streptococcus agalactiae ATCC 624. In kind it is cell-based. As to the method:
as §1, §2

The subject of assay [5] is Staphylococcus aureus (MSSA) ATCC 25923. In kind it is cell-based. The procedure:
as §1, §2

Assay [6] deals with Streptococcus pneumoniae ATCC 10015. In kind it is cell-based. The procedure: as §1, §2
In assay [7] the test system is Bordetella bronchiseptica ATCC 14064. The format is cell-based. The procedure:
as §1, §2

For assay [8], the system named is Aerococcus viridans ATCC 700406. In kind it is cell-based. The procedure: as §1, §2
Assay [9] has as its system Staphylococcus epidermidis ATCC 12228. In kind it is cell-based. The procedure:
as §1, §2

In assay [10] the test system is Klebsiella pneumoniae ATCC 29995. The format is cell-based. As to the method:
as §1, §2

Assay [11] concerns Stenotrophomonas maltophilia ATCC 12714. In kind it is cell-based. As to the method: as §1, §2
Assay [12] concerns Pseudomonas aeroginosa (ATCC 27853). As to the kind of experiment: Killing kinetics in MHB. The format is cell-based, Pseudomonas aeruginosa. As to conditions: Cat1 at 4×MIC. The procedure: The rate of killing of Cat1 was determined in MHB using Pseudomonas aeroginosa (ATCC 27853) as the test organism. The bacteria were incubated with Cat1 (at 4×MIC concentration). At different time-points, several dilutions of the preparation were plated and an estimate of viable cells was determined (CFU/ml). The results in Table 3 indicate that Cat1 rapidly kills the bacteria, with a near 3-log reduction in CFU within 30 minutes.

Where no end group is shown, it is not given here.

“GLLRRLRKKIGKKLKKIGQKIKPIRILVP [SEQ ID NO: 3]”: the MIC in assay [1] worked out at 32 µg/mL; in assay [2] it was 1.5 µg/mL; in assay [3], 1.5 µg/mL; in [4] it was 16 µg/mL; in [5], 32 µg/mL; in assay [6], 8 µg/mL. The MIC in [7] turned out to be 0.5 µg/mL; in [8], 0.5 µg/mL; in [9], 4 µg/mL; in [10] it was 8 µg/mL; in [11], 1 µg/mL. Moreover, the “viable cells (CFU/ml)” value is 175 CFU/ml in assay [12] (0.5 hours), less than 20 CFU/ml in assay [12] (1.5 hours) and less than 20 CFU/ml in [12] (24 hours). Moreover, the “reduction in CFU” value in assay [12] (within 30 minutes) was approximately 3 log.
